Our source for the Tm shift values is PubChem BioAssay AID503.

This test deals with Regulator of G-protein signaling 18 (Homo sapiens) (UniProt Q9NS28). The test is described as follows: RGS18 binders by thermal stabilization, biophysical, recombinant human protein, DSF (AID 503). The settings on record: SYPRO orange, at 10 µM, protein 2 µM, buffer 10 mM HEPES, pH 7.5, NaCl 150 mM, stronger effect = higher value.

Molecules are shown by their SMILES.

Regulator of G-protein signaling 18 (Homo sapiens), sequence (Q9NS28 whole entry, looked up): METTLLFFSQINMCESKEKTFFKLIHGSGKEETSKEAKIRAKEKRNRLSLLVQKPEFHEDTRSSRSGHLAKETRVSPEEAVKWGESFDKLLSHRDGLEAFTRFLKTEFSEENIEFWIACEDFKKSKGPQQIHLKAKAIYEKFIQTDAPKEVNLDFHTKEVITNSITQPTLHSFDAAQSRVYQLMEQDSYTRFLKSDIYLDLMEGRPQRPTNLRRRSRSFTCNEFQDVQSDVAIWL

Regarding `O=C1NCc2c1c1c3ccccc3[nH]c1c1[nH]c3ccccc3c21`, the Tm shift is 2.6 °C.

On to `O=C(Nc1cccc(Nc2cc(Nc3cccc(C(F)(F)F)c3)ncn2)c1)C1CC1`, for which the Tm shift came to 4 °C.
